Among the data in patent US9518065B2, “IRAK inhibitors and uses thereof” (NIMBUS IRIS, INC., priority 2013, dated 2016) are IC50 values, retold here.

Molecules are shown by their SMILES.

This assay concerns the target T1, IRAK4 (Homo sapiens, UniProt Q9NWZ3).
T1 construct: purchased CARNA Bioscience 09-145
T1 sequence (Q9NWZ3 1-460): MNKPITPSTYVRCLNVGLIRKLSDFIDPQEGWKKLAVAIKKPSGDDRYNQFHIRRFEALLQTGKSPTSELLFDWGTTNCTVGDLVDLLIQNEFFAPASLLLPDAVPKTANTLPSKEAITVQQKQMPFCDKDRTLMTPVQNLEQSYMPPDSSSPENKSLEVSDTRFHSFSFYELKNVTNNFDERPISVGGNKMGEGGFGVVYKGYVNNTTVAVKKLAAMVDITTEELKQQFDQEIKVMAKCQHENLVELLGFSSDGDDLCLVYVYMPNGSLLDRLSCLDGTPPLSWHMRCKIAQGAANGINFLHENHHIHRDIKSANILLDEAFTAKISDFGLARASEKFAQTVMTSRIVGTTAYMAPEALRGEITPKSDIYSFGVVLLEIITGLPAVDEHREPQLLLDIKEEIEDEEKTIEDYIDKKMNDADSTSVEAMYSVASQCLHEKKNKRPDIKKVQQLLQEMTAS
As to the kind of experiment: IRAK-4 activity inhibition assay (Caliper). It counts as biochemical. Particulars: 3.5 nM IRAK4, 37 μM ATP, 1.5 μM Peptide 8. The procedure:
A 1× kinase base buffer was prepared from 50 mM HEPES, pH 7.5 and 0.0015% Brij-35. A stop buffer was prepared from 100 mM HEPES, pH 7.5, 0.015% Brij-35, 0.2% Coating Reagent #3, and 50 mM EDTA.
Test compound was diluted to 50× of the final desired highest inhibitor concentration in reaction by 100% DMSO. 100 ul of this compound dilution was transferred to a well in a 96-well plate. For example, if desired highest inhibitor concentration in IC50 determination is 100 uM, then prepare 5000 uM of compound DMSO solution in this step.
Test compound was serially diluted by transferring 30 μl to 60 μl of 100% DMSO in the next well and so forth for a total of 10 concentrations. 100 μl of 100% DMSO was added to two empty wells for no compound control and no enzyme control in the same 96-well plate.
A new 96-well plate was marked as intermediate plate. 5 μl of compound serial dilution was transferred from source plate to the corresponding wells of the intermediate plate. 45 μl of 1× kinase base buffer (KB buffer) was added to each well of the intermediate plate. The intermediate plate was placed for 10 min on a shaker.
5 μl of each well was transferred from the 96-well intermediate plate to a 384-well plate in duplicates. For example, A1 of the 96-well plate is transferred to A1 and A2 of the 384-well plate. A2 of the 96-well plate is transferred to A3 and A4 of the 384-well plate, and so on.
IRAK4 and DTT in 1× kinase base buffer was added. The 2.5× enzyme mix contained 8.8 nM IRAK4 and 5 mM DTT.
Peptide 8, ATP, MgCl2 and MnCl2 were added in the 1× kinase base buffer. The 2.5× peptide mix contained 3.75 μM peptide 8, 92.5 μM ATP, 12.5 mM MgCl2 and 2.5 mM MnCl2.
Assay plate already contained 5 μl of compound in 10% DMSO. Added 10 μl of 2.5× enzyme solution to each well of the 384-well assay plate, except no enzyme control wells. The final concentration of IRAK4 in reaction was 3.5 nM. Added 10 μl of 1× kinase base buffer to no enzyme control wells in the assay plate. Incubated at room temperature for 10 min.
Added 10 μl of 2.5× peptide solution to each well of the 384-well assay plate. The final concentration of Peptide 8 and ATP was 1.5 μM and 37 μM, respectively. Incubated at 28° C. for 40 minutes. Added 25 μl of stop buffer to stop reaction. Collected data on Caliper.
Copied conversion % data from Caliper program. Converted conversion % values to percent inhibition values. Percent inhibition=(max-conversion %)/(max-min)*100, where “max” means the conversion % of DMSO control and “min” means the conversion % of no enzyme control.
The compound numbers correspond to the compound numbers in Table 1. Compounds having an activity designated as “A” provided an IC50≦1 μM; compounds having an activity designated as “B” provided an IC50 of 1-5 μM; compounds having an activity designated as “C” provided an IC50 of ≧5 μM. “NA” stands for “not assayed.”
The IC50 is the concentration that inhibits the measured activity by half. Higher therefore signals weaker potency in that assay. On to `Cn1cc(Nc2nc(N[C@H]3CC[C@H](N4CCOCC4)CC3)c3ncsc3n2)cn1` [Compound I-46, N5-(1-methyl-1H-pyrazol-4-yl)-N7-((1r,4r)-4-morpholinocyclo-hexyl)thiazolo[5,4-d]pyrimidine-5,7-diamine], for which the IC50 was at most 1 µM.

The compound `CC(C)c1nc2c(N[C@H]3CC[C@H](N4CCOCC4)CC3)nc(Nc3cnn(C)c3)nc2s1` [Compound I-47, 2-isopropyl-N5-(1-methyl-1H-pyrazol-4-yl)-N7-((1r,4r)-4-morpholinocyclohexyl)thiazolo[5,4-d]pyrimidine-5,7-diamine] returned an IC50 of at most 1 µM.

With `Cn1cc(Nc2nc(N[C@H]3CC[C@H](N4CCOCC4)CC3)c3nc(C(C)(F)F)sc3n2)cn1` [Compound I-48, 2-(1,1-difluoroethyl)-N5-(1-methyl-1H-pyrazol-4-yl)-N7-((1r,4r)-4-morpholinocyclohexyl)thiazolo[5,4-d]pyrimidine-5,7-diamine], the IC50 is at most 1 µM.

In the case of `Cn1cc(Nc2nc(N[C@H]3CC[C@H](N4CCOCC4)CC3)c3nc(C4CC4)sc3n2)cn1` [Compound I-49, 2-cyclopropyl-N5-(1-methyl-1H-pyrazol-4-yl)-N7-((1r,4r)-4-morpholinocyclohexyl)thiazolo[5,4-d]pyrimidine-5,7-diamine], the IC50 is at most 1 µM.

On to `Cn1cc(Nc2nc(N[C@H]3CC[C@H](N4CCOCC4)CC3)c3nc(C(C)(C)C)sc3n2)cn1` [Compound I-50, 2-(tert-butyl)-N5-(1-methyl-1H-pyrazol-4-yl)-N7-((1r,4r)-4-morpholinocyclohexyl)thiazolo[5,4-d]pyrimidine-5,7-diamine], for which the IC50 was in the range of 1 to 5 µM.

`c1nc2c(N[C@H]3CC[C@H](N4CCOCC4)CC3)nc(Nc3cnn(C4CCOCC4)c3)nc2s1` [Compound I-51, N7-((1r,4r)-4-morpholinocyclohexyl)-N5-(1-(tetrahydro-2H-pyran-4-yl)-1H-pyrazol-4-yl)thiazolo[5,4-d]pyrimidine-5,7-diamine] came in with an IC50 of at most 1 µM.

In turn, `c1nc2c(N[C@H]3CC[C@H](N4CCOCC4)CC3)nc(Nc3cnn(CC4CCOCC4)c3)nc2s1` [Compound I-52, N7-((1r,4r)-4-morpholinocyclohexyl)-N5-(1-((tetrahydro-2H-pyran-4-yl)methyl)-1H-pyrazol-4-yl)thiazolo[5,4-d]pyrimidine-5,7-diamine] had an IC50 of at most 1 µM.

Take `CC(C)n1cc(Nc2nc(N[C@H]3CC[C@H](N4CCOCC4)CC3)c3ncsc3n2)cn1` [Compound I-53, N5-(1-isopropyl-1H-pyrazol-4-yl)-N7-((1r,4r)-4-morpholino-cyclohexyl)thiazolo[5,4-d]pyrimidine-5,7-diamine]: the half-maximal inhibitory concentration (IC50) is at most 1 µM.

In turn, `OCCn1cc(Nc2nc(N[C@H]3CC[C@H](N4CCOCC4)CC3)c3ncsc3n2)cn1` [Compound I-54, 2-(4-((7-(((1r,4r)-4-morpholinocyclohexyl)amino)thiazolo[5,4-d]pyrimidin-5-yl)amino)-1H-pyrazol-1-yl)ethan-1-ol] came in with an IC50 of at most 1 µM.

Regarding `Cc1nc2c(O[C@H]3CC[C@H](N4CCOCC4)CC3)nc(Nc3cnn(C(C)C)c3)nc2s1` [Compound I-57, N-(1-isopropyl-1H-pyrazol-4-yl)-2-methyl-7-(((1r,4r)-4-morpholino-cyclohexyl)oxy)thiazolo[5,4-d]pyrimidin-5-amine], the IC50 is at most 1 µM.

In the case of `[2H]C([2H])([2H])c1nc2c(N[C@H]3CC[C@H](N4CCOCC4)CC3)nc(Nc3cnn(C)c3)nc2s1` [Compound I-58, 2-(methyl-d3)-N5-(1-methyl-1H-pyrazol-4-yl)-N7-((1r,4r)-4-morpholinocyclohexyl)thiazolo[5,4-d]pyrimidine-5,7-diamine], the IC50 was at most 1 µM.
